From BindingDB's records for doi:10.1021/acs.jmedchem.9b00568 (University of Central Florida, 2020) come the findings set out here.

This assay is described as follows: Induction of LAT1-mediated polyamine efflux in human L3.6PL cells assessed as reduction in cell viability after 48 hrs by MTS assay.

Broadly, the IC50 is the concentration needed to halve the response being measured. Consider `CC(C)CCN1CCN([C@@H](CNCc2ccccc2)CC2CCCCC2)C[C@@H]1CC(C)C`, for which the IC50 came to 3.48 µM.
